According to PubChem BioAssay AID1918931 (Molecular Pharmacology Branch, DTP, NCI, 2023):

Tested on: 138582-337-R-J1-PDC complex spheroid viability
Test: Anticancer human tumor 138582-337-R-J1-PDC patient-derived Merkel cell tumor cell line growth inhibition
Details: for IC50: curve of first compound; for viability, T/C: stronger effect = lower value
Procedure, shortened: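 Multicellular complex spheroids of tumor cells with human endothelial cells (HUVEC) and mesenchymal stem cells; the LSD1 inhibitor iadademstat was combined with standard-of-care or investigational agents. Top concentration at or near clinical Cmax, half-log dilutions; final DMSO ≤0.25%.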

[1] = second compound 0.1 µM, first compound 0.0316 µM
[2] = second compound 0.1 µM, first compound 0.1 µM
[3] = second compound 0.1 µM, first compound 0.316 µM
[4] = second compound 0.1 µM, first compound 1 µM
[5] = second compound 0.1 µM, first compound 3.16 µM
[6] = second compound 0.1 µM, first compound 10 µM
[7] = second compound 0.316 µM, first compound 0.0316 µM
[8] = second compound 0.316 µM, first compound 0.1 µM
[9] = second compound 0.316 µM, first compound 0.316 µM
[10] = second compound 0.316 µM, first compound 1 µM
[11] = second compound 0.316 µM, first compound 3.16 µM
[12] = second compound 0.316 µM, first compound 10 µM
[13] = second compound 1 µM, first compound 0.0316 µM
[14] = second compound 1 µM, first compound 0.1 µM
[15] = second compound 1 µM, first compound 0.316 µM
[16] = second compound 1 µM, first compound 1 µM
[17] = second compound 1 µM, first compound 3.16 µM
[18] = second compound 1 µM, first compound 10 µM
[19] = second compound 3.16 µM, first compound 0.0316 µM
[20] = second compound 3.16 µM, first compound 0.1 µM
[21] = second compound 3.16 µM, first compound 0.316 µM
[22] = second compound 3.16 µM, first compound 1 µM
[23] = second compound 3.16 µM, first compound 3.16 µM
[24] = second compound 3.16 µM, first compound 10 µM
[25] = second compound 10 µM, first compound 0.0316 µM
[26] = second compound 10 µM, first compound 0.1 µM
[27] = second compound 10 µM, first compound 0.316 µM
[28] = second compound 10 µM, first compound 1 µM
[29] = second compound 10 µM, first compound 3.16 µM
[30] = second compound 10 µM, first compound 10 µM
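Also: spheroids exposed to agents for 7 days.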
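For viability, T/C in this document: 100% = DMSO vehicle control viability.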

Row | SMILES | IC50 (second compound 0.1 µM) [µM] | IC50 (second compound 0.316 µM) [µM] | IC50 (second compound 1 µM) [µM] | IC50 (second compound 3.16 µM) [µM] | IC50 (second compound 10 µM) [µM] | viability, T/C [1] [%] | viability, T/C [2] [%] | viability, T/C [3] [%] | viability, T/C [4] [%] | viability, T/C [7] [%] | viability, T/C [8] [%] | viability, T/C [9] [%] | viability, T/C [10] [%] | viability, T/C [13] [%] | viability, T/C [14] [%] | viability, T/C [15] [%] | viability, T/C [16] [%] | viability, T/C [19] [%] | viability, T/C [20] [%] | viability, T/C [21] [%] | also measured
1 | CC(C)c1c(-c2ccccc2)nc2c(C#N)c[nH]n2c1=O + NC1CC1c1ccc(-c2cccc(O)c2)cc1 | 6.25 | 4.4 | 4.91 | 2.53 | > 10 | 69.5 | 76.3 | 66.6 | 62.1 | 69.1 | 73.5 | 71.2 | 67.6 | 76.1 | 68.8 | 82 | 70.2 | 85.7 | 78.6 | 68.6 | viability, T/C [5]: 54.4%; viability, T/C [6]: 46.9%; viability, T/C [11]: 54.7%; viability, T/C [12]: 38.5%; viability, T/C [17]: 57.5%; viability, T/C [18]: 38.2%; viability, T/C [22]: 55.9%; viability, T/C [23]: 50.1%; viability, T/C [24]: 38.5%; viability, T/C [25]: 85.7%; viability, T/C [26]: 90.9%; viability, T/C [27]: 84.9%; viability, T/C [28]: 73.9%; viability, T/C [29]: 61.1%; viability, T/C [30]: 51.6%
2 | CC1COCCN1c1cc(-c2ccnn2C)c2ccnc(-c3ccn[nH]3)c2n1 (stereo not given) + NC1CC1c1ccc(-c2cccc(O)c2)cc1 | 0.0345 | 0.0257 | 0.0384 | 0.0438 | 0.0677 | 50.3 | 34.1 | 26.3 | 28 | 48 | 42.9 | 27.1 | 27.3 | 54.4 | 28.2 | 30.1 | 25.8 | 59.7 | 33.5 | 27.6 | viability, T/C (second compound 0.1 µM, first compound 0.00316 µM): 62.1%; viability, T/C (second compound 0.1 µM, first compound 0.01 µM): 65%; viability, T/C (second compound 0.316 µM, first compound 0.00316 µM): 68%; viability, T/C (second compound 0.316 µM, first compound 0.01 µM): 57.4%; viability, T/C (second compound 1 µM, first compound 0.00316 µM): 77.1%; viability, T/C (second compound 1 µM, first compound 0.01 µM): 74.7%; viability, T/C (second compound 3.16 µM, first compound 0.00316 µM): 80.4%; viability, T/C (second compound 3.16 µM, first compound 0.01 µM): 65.8%; viability, T/C [22]: 26.4%; viability, T/C (second compound 10 µM, first compound 0.00316 µM): 75.6%; viability, T/C (second compound 10 µM, first compound 0.01 µM): 85%; viability, T/C [25]: 57.6%; viability, T/C [26]: 46.2%; viability, T/C [27]: 30.5%; viability, T/C [28]: 26.5%
3 | CC1COCCN1c1cc(C2(S(C)(=N)=O)CC2)nc(-c2ccnc3[nH]ccc23)n1 (stereo not given) + NC1CC1c1ccc(-c2cccc(O)c2)cc1 | 4.58 | 3.02 | 5.05 | 3.85 | 4.24 | 74.1 | 78 | 70.3 | 68.6 | 64.6 | 79 | 75.8 | 68 | 72 | 66.1 | 62.6 | 69.4 | 81.2 | 76.3 | 78.8 | viability, T/C [5]: 54.2%; viability, T/C [6]: 37.6%; viability, T/C [11]: 49.4%; viability, T/C [12]: 35.9%; viability, T/C [17]: 54%; viability, T/C [18]: 40.8%; viability, T/C [22]: 66.2%; viability, T/C [23]: 54%; viability, T/C [24]: 32.6%; viability, T/C [25]: 89.9%; viability, T/C [26]: 87.6%; viability, T/C [27]: 95.5%; viability, T/C [28]: 80.8%; viability, T/C [29]: 53.3%; viability, T/C [30]: 41.6%
